Measured values: patent US12290513B2, “Therapeutic methods and compositions for treating movement disorders” (Vima Therapeutics, Inc., priority 2023, dated 2025)
pEC50: −log10 of the molar value. Read-outs that look alike come from different tables or passages of the source.

Tests used:
[1] = dogs
[2] = molecular target: T1, human muscarinic receptor M2 (Homo sapiens, UniProt P08172); test: Calcium flux assay (FLIPR), CHO cells expressing human M2; assay type: cell-based; conditions: agonist mode
T1 construct: expressed in transfected cells
Description: (§1) All cells used in the following experiments were clonal populations of Chinese Hamster Ovary (CHO) cells stably expressing the corresponding human muscarinic receptor, except for the M4 cell line, which was a population of CHO cells transiently transfected with the human M4 receptor. Muscarinic agonism and antagonism of each receptor was measured by a quantitative calcium flux assay that is used for multiple classes of G-protein-coupled receptors, or GPCRs, as described elsewhere (e.g., Arkin et al., […], PMID: 22553878). Acetylcholine and atropine were used as positive controls for receptor agonism and antagonism, respectively. The procedure was as follows: • 1. Cells were thawed and cultured in cell culture medium (DMEM/F12 containing 10% FBS, 1× penicillin-streptomycin and 600 μg/ml hygromycin B) at 37° C. in 5% (v/v) CO2. • 2. One day before the assays, cells were detached using TrypLE™ and counted using a cell-counter. Only cells with >85% viability are used for the assay. • 3. […] Plates were read for 160 sec with 1 sec intervals to obtain the data in agonist mode, then kept at 25° C. in the dark for 30 min. • 11. […] Plates were read for 160 sec with 1 sec intervals, thereby measuring the ability for test compounds to antagonize the activation of muscarinic receptors by Ach.

[3] = molecular target: T2, human M4 receptor (Homo sapiens, UniProt P08173); test: Calcium flux assay (FLIPR), CHO cells transiently transfected with human M4; assay type: cell-based; conditions: agonist mode
T2 construct: expressed in transfected cells; host or cells: CHO (transient transfection)
Description: All cells used in the following experiments were clonal populations of Chinese Hamster Ovary (CHO) cells stably expressing the corresponding human muscarinic receptor, except for the M4 cell line, which was a population of CHO cells transiently transfected with the human M4 receptor. […] The procedure was as follows: • 1. Cells were thawed and cultured in cell culture medium (DMEM/F12 containing 10% FBS, 1× penicillin-streptomycin and 600 μg/ml hygromycin B) at 37° C. in 5% (v/v) CO2. • 2. One day before the assays, cells were detached using TrypLE™ and counted using a cell-counter. […] 12,000 cells/well were seeded in 30 μl/well culture medium in a 384-well cell plate and incubated overnight at 37C, 5% (v/v) CO2. • 4. On the assay day, 2× dye solution was prepared following the manual of the FLIPR® Calcium 6 Assay Kit: • i. The dye was diluted with assay buffer (20 mM HEPES in 1× HBSS, PH 7.4); • ii. Probenecid was added to a final concentration of 5 mM; • iii. Cells were vortexed vigorously for 1-2 minutes. • 5. Medium was removed from the cell plate by flicking the cell plate on paper towels. • 6. 10 μl of assay buffer and 10 μl of 2× dye solution was added to each well of the cell plate. • 7. […] Plates were read for 160 sec with 1 sec intervals to obtain the data in agonist mode, then kept at 25° C. in the dark for 30 min. • 11.

[4] = molecular target: T3, human muscarinic receptor M5 (Homo sapiens, UniProt P08912); test: Calcium flux assay (FLIPR), CHO cells expressing human M5; assay type: cell-based; conditions: agonist mode
T3 construct: expressed in transfected cells
Description: as §1

[5] = In vivo PK of (S)-BTC in rats: plasma, brain, CSF; conditions: male, Sprague Dawley, rat, 10 mg/kg single oral dose; for Kp: po, 10 mg/kg
Description: 6-8-week-old male Sprague Dawley rats were fasted overnight prior to treatment. […] Treated animals were exsanguinated prior to brain collection, and brain samples were frozen at −80° C. […] Concentrations of compounds in the plasma, brain, CSF samples were analyzed using a standard LC-MS/MS method to detect parent test compound from each of the processed tissues. The following pharmacokinetic parameters were calculated and analyzed using WinNonlin (Phoenix™, version 8.3): T1/2, Cmax, Tmax, MRT, AUCinf, AUClast, F %, ratio of brain/plasma, ratio of CSF/plasma, and ratio of CSF/brain.

T2 sequence (P08173 whole entry): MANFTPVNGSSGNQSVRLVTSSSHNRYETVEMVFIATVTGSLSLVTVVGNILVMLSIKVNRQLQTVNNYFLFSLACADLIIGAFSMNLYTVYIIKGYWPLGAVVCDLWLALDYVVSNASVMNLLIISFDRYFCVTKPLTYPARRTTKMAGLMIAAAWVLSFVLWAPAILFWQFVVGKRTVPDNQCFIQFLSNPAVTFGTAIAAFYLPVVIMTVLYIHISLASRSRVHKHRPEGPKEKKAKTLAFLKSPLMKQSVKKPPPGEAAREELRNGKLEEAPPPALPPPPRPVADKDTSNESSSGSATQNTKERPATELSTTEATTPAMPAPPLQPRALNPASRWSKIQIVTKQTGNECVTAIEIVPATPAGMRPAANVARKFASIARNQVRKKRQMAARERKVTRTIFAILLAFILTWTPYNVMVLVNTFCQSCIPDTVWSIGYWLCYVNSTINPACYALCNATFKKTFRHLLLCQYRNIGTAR
T1 sequence (P08172 whole entry): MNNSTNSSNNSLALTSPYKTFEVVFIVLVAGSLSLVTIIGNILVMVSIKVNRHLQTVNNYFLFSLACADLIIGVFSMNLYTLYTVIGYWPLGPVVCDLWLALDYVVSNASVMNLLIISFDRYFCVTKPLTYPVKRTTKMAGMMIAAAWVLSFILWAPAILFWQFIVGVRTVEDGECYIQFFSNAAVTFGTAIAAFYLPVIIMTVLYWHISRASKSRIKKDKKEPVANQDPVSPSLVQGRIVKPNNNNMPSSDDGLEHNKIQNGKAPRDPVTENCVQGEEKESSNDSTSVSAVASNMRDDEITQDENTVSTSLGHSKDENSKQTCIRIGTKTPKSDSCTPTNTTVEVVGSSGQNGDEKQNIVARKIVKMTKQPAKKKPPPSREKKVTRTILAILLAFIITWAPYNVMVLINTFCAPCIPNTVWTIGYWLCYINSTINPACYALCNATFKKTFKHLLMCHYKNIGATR
T3 sequence (P08912 whole entry): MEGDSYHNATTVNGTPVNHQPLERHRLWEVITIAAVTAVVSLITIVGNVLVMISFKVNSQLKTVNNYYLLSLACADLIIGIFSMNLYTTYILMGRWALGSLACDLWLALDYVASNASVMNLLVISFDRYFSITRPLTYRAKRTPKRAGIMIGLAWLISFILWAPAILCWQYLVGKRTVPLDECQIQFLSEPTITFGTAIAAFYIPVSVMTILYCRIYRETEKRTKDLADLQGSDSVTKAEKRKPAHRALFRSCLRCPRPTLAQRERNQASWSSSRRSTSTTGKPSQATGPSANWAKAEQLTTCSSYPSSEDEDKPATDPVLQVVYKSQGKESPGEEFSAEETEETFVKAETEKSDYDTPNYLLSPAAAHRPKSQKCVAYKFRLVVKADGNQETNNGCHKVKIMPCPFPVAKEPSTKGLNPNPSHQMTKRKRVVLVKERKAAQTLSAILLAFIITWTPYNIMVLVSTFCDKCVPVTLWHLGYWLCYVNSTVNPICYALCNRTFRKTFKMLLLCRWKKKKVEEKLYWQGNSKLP

Compound	share of total THP that was (R)-THP ([1]; IV 0.2 mg/kg Racemic THP) [%]	share of serum THP detected that was (R)-THP ([1]; oral 2 mg/kg Racemic THP, alone or co-dosed with Bethanechol)	pEC50 [2]	pEC50 [3]	pEC50 [4]	Kp ([5]; CSF and plasma, read-out: AUClast Ratio (CSF/Plasma))	Kp ([5]; CSF and plasma, read-out: Cmax Ratio (CSF/Plasma))	Kp ([5]; brain and plasma, read-out: AUClast Ratio (Brain/Plasma))	Kp ([5]; brain and plasma, read-out: Cmax Ratio (Brain/Plasma))	AUC(0-t) ([5]; CSF, mean) [ng·h/mL]	Cmax ([5]; CSF, mean) [ng/mL]	Tmax ([5]; CSF, mean) [h]	Cmax ([5]; brain, mean) [ng/g]	Tmax ([5]; brain, mean) [h]	AUC(0-inf) ([5]; plasma, mean) [ng·h/mL]	AUC(0-t) ([5]; plasma, mean) [ng·h/mL]	Cmax ([5]; plasma, mean) [ng/mL]	Tmax ([5]; plasma, mean) [h]	half-life ([5]; plasma, mean) [h]	MRT inf ([5]; plasma, mean, read-out: MRTInf obs) [h]
O[C@@](CCN1CCCCC1)(c1ccccc1)C1CCCCC1 [(R)-THP, (R)-trihexyphenidyl]	~60	over 80%																		
C[C@@H](C[N+](C)(C)C)OC(N)=O.[Cl-] [(S)-BTC, (S)-bethanechol]			6.39	< 5.00	6.91	0.00615	0.00553	0.0499	0.0242	6.31	1.74	0.5	7.6	8	1080	1030	314	1	1.81	2.91
